The values below are quoted from earlier work in patent US20230157980A1, “METHODS FOR TREATING HEARING LOSS INCIDENT TO COCHLEAR IMPLANT SURGERY” (HOUGH EAR INSTITUTE, priority 2018, published 2023).

The structures appear in SMILES notation.

The data set relates to hearing loss caused by cochlear implantation.

As to `CC(=O)N[C@@H](CS)C(=O)O` [NAC, N-acetylcysteine], the hearing improvement result (local NAC, 32 kHz, 4-week post insertion time point) is recorded as “barely significant hearing improvement”. For the same molecule, the “protective effect on hearing” value (local NAC, lower frequencies (below 32 kHz)) was “no protective effect”. Moreover, the “effect on improving hearing” value (local administration of NAC) was “only modest and transient effects”.
